Where “and” joins values, the source holds several entries; their conditions need not be identical. Identical values can stand only once. Toxic doses and inconclusive results are not listed. Rule as the data show it: active = T/C of 150% or more; inactive = T/C below 125%.
Test system: L1210 leukemia ip in BDF1 mice, survival T/C
Assay: NCI In Vivo Anticancer Drug Screen. Data for tumor model L1210 Leukemia (intraperitoneal) in B6D2F1 (BDF1) mice
Settings: endpoint: mean survival time, higher = longer survival
How it was run: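 Survival endpoint. Drug-treated group vs vehicle group, expressed as T divided by C. Tumor passaged by transplantation.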

[1] = dose: 100.0 mg/kg/injection, schedule: Q01DX001 (ip), vehicle: saline
[2] = dose: 100.0 mg/kg/injection, schedule: Q01DX009 (ip), vehicle: saline
[3] = dose: 100.0 mg/kg/injection, schedule: Q04DX003 (ip), vehicle: saline
[4] = dose: 200.0 mg/kg/injection, schedule: Q01DX001 (ip), vehicle: saline
[5] = dose: 200.0 mg/kg/injection, schedule: Q01DX009 (ip), vehicle: saline
[6] = dose: 200.0 mg/kg/injection, schedule: Q04DX003 (ip), vehicle: saline
[7] = dose: 400.0 mg/kg/injection, schedule: Q01DX001 (ip), vehicle: saline
[8] = dose: 400.0 mg/kg/injection, schedule: Q01DX009 (ip), vehicle: saline
[9] = dose: 400.0 mg/kg/injection, schedule: Q04DX003 (ip), vehicle: saline
[10] = dose: 100.0 mg/kg/injection, schedule: Q01DX001 (ip), vehicle: Klucel (hydroxypropylcellulose) (HPC)
[11] = dose: 200.0 mg/kg/injection, schedule: Q01DX001 (ip), vehicle: Klucel (hydroxypropylcellulose) (HPC)
[12] = dose: 200.0 mg/kg/injection, schedule: Q01DX009 (ip), vehicle: other
[13] = dose: 100.0 mg/kg/injection, schedule: Q04DX002 (ip), vehicle: saline with Tween-80
[14] = dose: 200.0 mg/kg/injection, schedule: Q04DX002 (ip), vehicle: saline with Tween-80
[15] = dose: 400.0 mg/kg/injection, schedule: Q04DX002 (ip), vehicle: saline with Tween-80

Measured: T/C

COC(=O)C1C(O)C(C)C(O)C(C)C=C(C)C2=C3C(=C(C)C(=O)c4c(O)c(c(C)c(OC(C)=O)c43)NC(=O)C(C)=C/C=C\C(C)C(O)C(C)C1O)OCO2 (stereo not given)
inactive: dose: 20.0 mg/kg/injection, schedule: Q01DX009 (ip), vehicle: saline 105 % of control | dose: 40.0 mg/kg/injection, schedule: Q01DX009 (ip), vehicle: saline 100 % of control | dose: 80.0 mg/kg/injection, schedule: Q01DX009 (ip), vehicle: saline 102 % of control | dose: 100.0 mg/kg/injection, schedule: Q04DX002 (ip), vehicle: Klucel (hydroxypropylcellulose) (HPC) 96 % of control | dose: 160.0 mg/kg/injection, schedule: Q01DX009 (ip), vehicle: saline 107 % of control | dose: 200.0 mg/kg/injection, schedule: Q04DX002 (ip), vehicle: Klucel (hydroxypropylcellulose) (HPC) 90 % of control

N#CCC1CC=CCC1 (stereo not given)
inactive: dose: 100.0 mg/kg/injection, schedule: Q01DX001 (ip), vehicle: carboxymethylcellulose (CMC) 98 % of control | dose: 200.0 mg/kg/injection, schedule: Q01DX001 (ip), vehicle: carboxymethylcellulose (CMC) 98 % of control | dose: 400.0 mg/kg/injection, schedule: Q01DX001 (ip), vehicle: carboxymethylcellulose (CMC) 104 % of control

CC(C)CCN
inactive: [1] 115 % of control | [2] 98 % of control and 104 % of control | dose: 100.0 mg/kg/injection, schedule: Q04DX002 (ip), vehicle: saline 102 % of control and 103 % of control | [3] 98 % of control | [4] 112 % of control | [5] 107 % of control and 112 % of control | dose: 200.0 mg/kg/injection, schedule: Q04DX002 (ip), vehicle: saline 103 % of control and 108 % of control | [6] 98 % of control | [7] 107 % of control | [8] 114 % of control and 117 % of control | dose: 400.0 mg/kg/injection, schedule: Q04DX002 (ip), vehicle: saline 101 % of control and 102 % of control | [9] 112 % of control

c1ccc(Nc2ccc(Nc3ccccc3)cc2)cc1
inactive: [10] 94 % of control | [2] 113 % of control | [3] 86 % of control | [11] 94 % of control | [5] 110 % of control | [6] 93 % of control | dose: 400.0 mg/kg/injection, schedule: Q01DX001 (ip), vehicle: Klucel (hydroxypropylcellulose) (HPC) 91 % of control | [8] 110 % of control | [9] 95 % of control

CCCCCCCCOC(=O)c1[nH]cnc1/N=N\N(C)C
inactive: dose: 45.0 mg/kg/injection, schedule: Q01DX015 (ip), vehicle: other 103 % of control | dose: 88.0 mg/kg/injection, schedule: Q01DX001 (ip), vehicle: other 96 % of control | dose: 100.0 mg/kg/injection, schedule: Q01DX001 (ip), vehicle: other 102 % of control | dose: 133.0 mg/kg/injection, schedule: Q01DX001 (ip), vehicle: other 88 % of control | dose: 133.0 mg/kg/injection, schedule: Q01DX009 (ip), vehicle: other 101 % of control | dose: 180.0 mg/kg/injection, schedule: Q01DX015 (ip), vehicle: other 122 % of control | dose: 200.0 mg/kg/injection, schedule: Q01DX001 (ip), vehicle: other 109 % of control and 90 % of control | [12] 95 % of control | dose: 300.0 mg/kg/injection, schedule: Q01DX001 (ip), vehicle: other 100 % of control | dose: 300.0 mg/kg/injection, schedule: Q01DX009 (ip), vehicle: other 100 % of control | dose: 400.0 mg/kg/injection, schedule: Q01DX001 (ip), vehicle: other 104 % of control | dose: 450.0 mg/kg/injection, schedule: Q01DX009 (ip), vehicle: other 97 % of control

CCCCCCCCCCCC(=O)NC(=S)Nc1ccc([N+](=O)[O-])cc1C
inactive: dose: 100.0 mg/kg/injection, schedule: Q04DX003 (ip), vehicle: Klucel (hydroxypropylcellulose) (HPC) 88 % of control | dose: 200.0 mg/kg/injection, schedule: Q04DX003 (ip), vehicle: Klucel (hydroxypropylcellulose) (HPC) 86 % of control | dose: 400.0 mg/kg/injection, schedule: Q04DX003 (ip), vehicle: Klucel (hydroxypropylcellulose) (HPC) 90 % of control

CC(=O)C1=C(c2ccc([N+](=O)[O-])cc2)NC(=O)NC1c1ccco1 (stereo not given)
inactive: dose: 100.0 mg/kg/injection, schedule: Q04DX003 (ip), vehicle: saline with Tween-80 98 % of control | dose: 200.0 mg/kg/injection, schedule: Q04DX003 (ip), vehicle: saline with Tween-80 93 % of control | dose: 400.0 mg/kg/injection, schedule: Q04DX003 (ip), vehicle: saline with Tween-80 100 % of control

Nc1cc(Cl)ccc1[N+](=O)[O-]
inactive: [3] 103 % of control | [6] 95 % of control | [9] 96 % of control

O=C(O)/C(=N\Nc1ccccc1)c1ccccc1
inactive: dose: 50.0 mg/kg/injection, schedule: Q01DX001 (ip), vehicle: saline 107 % of control | [1] 96 % of control | [4] 110 % of control | [7] 90 % of control

Cc1cccc(Cl)c1NC(=O)CC#N
inactive: dose: 100.0 mg/kg/injection, schedule: Q01DX009 (ip), vehicle: saline with Tween-80 97 % of control | [13] 97 % of control | dose: 200.0 mg/kg/injection, schedule: Q01DX009 (ip), vehicle: saline with Tween-80 95 % of control | [14] 97 % of control | dose: 400.0 mg/kg/injection, schedule: Q01DX009 (ip), vehicle: saline with Tween-80 100 % of control | [15] 97 % of control

O=C(O)C12CCC(CC1Br)C2 (stereo not given)
inactive: dose: 75.0 mg/kg/injection, schedule: Q01DX001 (ip), vehicle: acetone 105 % of control | [2] 102 % of control | dose: 150.0 mg/kg/injection, schedule: Q01DX001 (ip), vehicle: acetone 106 % of control | [5] 110 % of control | dose: 300.0 mg/kg/injection, schedule: Q01DX001 (ip), vehicle: acetone 102 % of control | [8] 102 % of control

CCC[CH2][Sn]([CH2]CCC)([n]1cncn1)[n]1cncn1
inactive: dose: 3.13 mg/kg/injection, schedule: Q04DX003 (ip), vehicle: saline with Tween-80 101 % of control | dose: 6.25 mg/kg/injection, schedule: Q04DX002 (ip), vehicle: saline with Tween-80 104 % of control | dose: 6.25 mg/kg/injection, schedule: Q04DX003 (ip), vehicle: saline with Tween-80 101 % of control | dose: 12.5 mg/kg/injection, schedule: Q04DX002 (ip), vehicle: saline with Tween-80 104 % of control | dose: 12.5 mg/kg/injection, schedule: Q04DX003 (ip), vehicle: saline with Tween-80 95 % of control | dose: 25.0 mg/kg/injection, schedule: Q04DX002 (ip), vehicle: saline with Tween-80 93 % of control

NC(=O)c1c(/N=C/c2cc(Cl)cc(Cl)c2O)sc2c1CCCC2
inactive: [13] 96 % of control | [14] 93 % of control | [15] 96 % of control

CN(C)c1ccc(C=C(Cl)Cl)cc1
inactive: dose: 50.0 mg/kg/injection, schedule: Q01DX005 (ip), vehicle: other 108 % of control | dose: 50.0 mg/kg/injection, schedule: Q01DX009 (ip), vehicle: other 96 % of control | dose: 100.0 mg/kg/injection, schedule: Q01DX005 (ip), vehicle: other 108 % of control | dose: 100.0 mg/kg/injection, schedule: Q01DX009 (ip), vehicle: other 107 % of control | dose: 200.0 mg/kg/injection, schedule: Q01DX005 (ip), vehicle: other 112 % of control | [12] 100 % of control

CCOC(=O)c1[nH]c(=O)nc(N)c1Oc1ccccc1
inactive: dose: 50.0 mg/kg/injection, schedule: Q01DX001 (ip), vehicle: Klucel (hydroxypropylcellulose) (HPC) 98 % of control | [10] 92 % of control | [11] 93 % of control

CCOC(=O)c1nc(N)nc(N)c1-c1ccc(Cl)cc1
inactive: dose: 25.0 mg/kg/injection, schedule: Q01DX001 (ip), vehicle: saline with Tween-80 98 % of control | dose: 50.0 mg/kg/injection, schedule: Q01DX001 (ip), vehicle: saline with Tween-80 104 % of control | dose: 100.0 mg/kg/injection, schedule: Q01DX001 (ip), vehicle: saline with Tween-80 102 % of control

O=C(O)C(F)(F)C(F)(Cl)C(F)(F)C(F)(Cl)C(F)(F)C(F)(Cl)C(F)(F)Cl (stereo not given) (tested in a mixture with another compound)
inactive: [3] 90 % of control | [6] 101 % of control | [9] 101 % of control

CC(=O)OCCc1ccc(Cl)cc1
inactive: [13] 93 % of control | [14] 96 % of control | [15] 100 % of control

CC(=O)N(C)C1=C(Sc2ccc(C)cc2)C(=O)c2ccccc2C1=O
inactive: dose: 150.0 mg/kg/injection, schedule: Q01DX001 (ip), vehicle: carboxymethylcellulose (CMC) 93 % of control
